From ChEMBL document CHEMBL2321846, “Aldosterone synthase inhibitors: targeting chronic kidney disease and diabetic nephropathy” (ACS Med Chem Lett, 2013) come the findings set out here.

Data set [1] deals with estradiol production (relative to human aldosterone synthase). Kind of data set: Selectivity ratio of IC50 for estradiol production in human H295R cells to IC50 for human aldosterone synthase. Particulars: read-out: Ratio IC50. Type of data set: ADME, cell-based.
Data set [2] concerns NCI-H295R. Description: Inhibition of estradiol production in human NCI-H295R cells after 48 hrs by HPLC analysis. Type of data set: functional, cell-based.
Data set [3] concerns testosterone production (relative to human aldosterone synthase). Description: Selectivity ratio of IC50 for testosterone production in human H295R cells to IC50 for human aldosterone synthase. Format: ADME, cell-based. Particulars: read-out: Ratio IC50.
Data set [4] concerns the target T1, Cytochrome P450 11B2, mitochondrial (Homo sapiens, UniProt P19099).
T1 sequence (P19099 whole entry): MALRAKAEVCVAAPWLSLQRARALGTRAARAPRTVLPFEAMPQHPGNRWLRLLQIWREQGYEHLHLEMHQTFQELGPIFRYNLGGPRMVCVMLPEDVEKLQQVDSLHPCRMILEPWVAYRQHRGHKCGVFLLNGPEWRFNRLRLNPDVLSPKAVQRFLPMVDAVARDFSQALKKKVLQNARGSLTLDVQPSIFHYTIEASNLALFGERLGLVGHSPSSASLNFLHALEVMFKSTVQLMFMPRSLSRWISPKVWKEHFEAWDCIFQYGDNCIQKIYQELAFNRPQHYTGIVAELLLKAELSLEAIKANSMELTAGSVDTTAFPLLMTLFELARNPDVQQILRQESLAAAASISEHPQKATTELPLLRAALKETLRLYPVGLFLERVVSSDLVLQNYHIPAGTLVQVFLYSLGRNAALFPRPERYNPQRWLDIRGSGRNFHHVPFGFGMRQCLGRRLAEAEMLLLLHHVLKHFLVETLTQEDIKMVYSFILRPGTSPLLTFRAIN
Description: Inhibition of human aldosterone synthase transfected in chinese hamster V79 cells after 24 hrs by LC-MS method. Format: cell-based.

The subject of data set [5] is NCI-H295R. Kind of data set: Inhibition of testosterone production in human NCI-H295R cells after 48 hrs by HPLC analysis. Format: functional, cell-based.

By IC50 is commonly meant the concentration that inhibits the measured activity by half. Lower therefore signals greater potency. On to `CC1(C)CC(c2ccc(C#N)cc2F)c2cn[nH]c21` (stereo not given), for which the values for the selectivity ratio in data set [1] and in data set [3] were 3140 and greater than 4280, respectively. Further, the results for the IC50 (with NCI-H295R [2]; in data set [4]; in the data set with NCI-H295R [5]) were 22 µM, 0.007 µM and greater than 30 µM, respectively.
As to `CC1(C)C[C@H](c2ccc(C#N)cc2)c2cn[nH]c21`, the selectivity ratio in data set [1] is 2640; in data set [3], greater than 6000. The IC50 in the data set on NCI-H295R [2] is 13.2 µM; in data set [4] it was 0.005 µM; with NCI-H295R [5], greater than 30 µM.
